Reference: ChEMBL document CHEMBL3585308, “Discovery and Modification of in Vivo Active Nrf2 Activators with 1,2,4-Oxadiazole Core: Hits Identification and Structure-Activity Relationship Study” (J Med Chem, 2015)
In brackets after ≈: the same amount, converted by molar mass.

Legend:
[1] = target: T1, Nuclear factor erythroid 2-related factor 2 (Homo sapiens) (UniProt Q16236); test: Activation of Nrf2 in human HepG2-ARE-C8 cells assessed as upregulation of ARE level at 40 uM after 12 hrs by luciferase reporter gene assay relative to control; format: cell-based
T1 sequence (whole entry): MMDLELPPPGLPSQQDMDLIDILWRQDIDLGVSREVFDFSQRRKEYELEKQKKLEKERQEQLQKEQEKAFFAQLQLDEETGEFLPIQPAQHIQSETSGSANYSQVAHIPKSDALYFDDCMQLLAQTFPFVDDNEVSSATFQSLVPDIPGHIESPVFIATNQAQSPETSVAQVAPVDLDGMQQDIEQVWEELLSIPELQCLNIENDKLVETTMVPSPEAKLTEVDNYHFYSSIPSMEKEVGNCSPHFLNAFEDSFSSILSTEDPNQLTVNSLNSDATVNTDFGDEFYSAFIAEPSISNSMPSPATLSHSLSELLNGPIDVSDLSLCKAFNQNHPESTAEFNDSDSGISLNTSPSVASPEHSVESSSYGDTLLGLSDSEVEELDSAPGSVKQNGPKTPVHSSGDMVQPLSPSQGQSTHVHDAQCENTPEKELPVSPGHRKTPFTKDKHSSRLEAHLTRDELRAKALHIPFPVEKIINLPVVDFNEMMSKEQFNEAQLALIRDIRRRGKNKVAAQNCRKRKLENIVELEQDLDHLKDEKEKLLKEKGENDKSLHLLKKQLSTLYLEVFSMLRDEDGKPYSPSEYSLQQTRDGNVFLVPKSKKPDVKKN

[2] = target: T1, Nuclear factor erythroid 2-related factor 2 (Homo sapiens); test: Activation of Nrf2 in human HepG2-ARE-C8 cells assessed as upregulation of ARE level at 80 uM after 12 hrs by luciferase reporter gene assay relative to control; format: cell-based
[3] = target: T1, Nuclear factor erythroid 2-related factor 2 (Homo sapiens); test: Activation of Nrf2 in human HepG2-ARE-C8 cells assessed as upregulation of ARE level at 160 uM after 12 hrs by luciferase reporter gene assay relative to control; format: cell-based
HCT-116 [4] = test: Cytotoxicity against human HCT116 cells assessed as effect on cell proliferation at 5 to 80 uM after 24 hrs by MTT assay; format: cell-based; conditions: hct-116, 24 h
[5] = target: T1, Nuclear factor erythroid 2-related factor 2 (Homo sapiens); test: Activation of Nrf2 in human HepG2-ARE-C8 cells assessed as upregulation of ARE level at 20 uM after 12 hrs by luciferase reporter gene assay relative to control; format: cell-based
[6] = target: T1, Nuclear factor erythroid 2-related factor 2 (Homo sapiens); test: Activation of Nrf2 in human HepG2-ARE-C8 cells assessed as upregulation of ARE level at 0.2 uM after 12 hrs by luciferase reporter gene assay relative to control; format: cell-based
[7] = target: T1, Nuclear factor erythroid 2-related factor 2 (Homo sapiens); test: Activation of Nrf2 in human HepG2-ARE-C8 cells assessed as upregulation of ARE level at 0.02 uM after 12 hrs by luciferase reporter gene assay relative to control; format: cell-based
[8] = target: T1, Nuclear factor erythroid 2-related factor 2 (Homo sapiens); test: Activation of Nrf2 in human HepG2-ARE-C8 cells assessed as upregulation of ARE level at 2 uM after 12 hrs by luciferase reporter gene assay relative to control; format: cell-based
HCT-116 [9] = test: Cytotoxicity against human HCT116 cells assessed as reduction of cell proliferation at 80 uM after 24 hrs by MTT assay; format: cell-based; conditions: hct-116, 24 h
[10] = Dissociation constant, pKa of the compound by potentiometric titration method; format: physicochemical
[11] = Lipophilicity, log D of the compound at pH 7.4 by potentiometric titration method; format: physicochemical; conditions: buffer
[12] = Intrinsic aqueous solubility of the compound by potentiometric titration method; format: physicochemical; conditions: read-out: Intrinsic_solubility
[13] = Permeability of the compound at pH 7.4 by PAMPA; format: physicochemical; conditions: read-out: permeability

SMILES | fold change (FC) [1] | fold change (FC) [2] | fold change (FC) [3] | Activity (HCT-116 [4]) | fold change (FC) [5] | fold change (FC) [6] | fold change (FC) [7] | fold change (FC) [8] | Activity (HCT-116 [9]) | pKa [10] | logD [11] | solubility [12] [µM] | Papp [13] [×10⁻⁶ cm/s]
Cn1nnc2cc(-c3noc(-c4ccccc4)n3)ccc21 | 7.34 | 7.67 | 11.7 | Non-toxic | 5.65 | 1.12 | 1.18 | 4.48 |  |  |  |  | 
c1ccc2cc(-c3nc(-c4ccc5nc[nH]c5c4)no3)ccc2c1 | 7.57 | 13.4 | 16.2 |  | 6.72 | 1.23 | 1.42 | 3.47 | Non-toxic | 4.22 | 5.56 | 2.5 (≈ 0.781 µg/mL) | 8.64
c1ccc(-c2nc(-c3ccc4nc[nH]c4c3)no2)cc1 | 23.7 | 3.19 | 4.46 |  | 21.4 | 4.72 | 1.49 | 14.2 | Non-toxic | 3.69 | 3.66 | 12.3 (≈ 3.23 µg/mL) | 5.26
Clc1ccc(-c2nc(-c3ccc4nc[nH]c4c3)no2)cc1 | 18.5 | 14.1 | 14.2 |  | 15.5 | 2.79 | 2.03 | 7.25 | Non-toxic | 3.77 | 3.71 | 49.5 (≈ 14.7 µg/mL) | 10.3
c1cc(-c2nc(-c3ccc4nc[nH]c4c3)no2)ccn1 | 4.95 | 5.99 | 10.6 |  | 4.36 | 2.54 | 1.91 | 4.27 | Non-toxic |  |  |  | 
c1ccc2nc(-c3nc(-c4ccc5nc[nH]c5c4)no3)ccc2c1 | 16.9 | 6.61 | 7.09 |  | 20.5 | 2.04 | 1.61 | 4.35 | Non-toxic |  |  |  | 
CCc1ccc(-c2nc(-c3ccc4nc[nH]c4c3)no2)cc1 | 5.88 | 4.82 | 3.69 |  | 9.34 | 1.75 | 1.37 | 2.56 | Non-toxic |  |  |  | 
Cn1nnc2ccc(-c3noc(-c4ccc(F)cc4)n3)cc21 | 5.96 | 5.48 | 8.36 | Non-toxic | 3.88 | 1.83 | 1.46 | 3.17 |  |  |  |  | 
CC(C)NCC(O)COc1cccc2ccccc12 (configuration not stated) [PROPRANOLOL] |  |  |  |  |  |  |  |  |  |  |  |  | 117
